From patent US8629102B2, “3-hydroxyisothiazole 1-oxide derivatives” (Mochida Pharmaceutical Co., Ltd., priority 2011, dated 2014) come the findings set out here.

The structures appear in SMILES notation.

T1 sequence (O14842 whole entry): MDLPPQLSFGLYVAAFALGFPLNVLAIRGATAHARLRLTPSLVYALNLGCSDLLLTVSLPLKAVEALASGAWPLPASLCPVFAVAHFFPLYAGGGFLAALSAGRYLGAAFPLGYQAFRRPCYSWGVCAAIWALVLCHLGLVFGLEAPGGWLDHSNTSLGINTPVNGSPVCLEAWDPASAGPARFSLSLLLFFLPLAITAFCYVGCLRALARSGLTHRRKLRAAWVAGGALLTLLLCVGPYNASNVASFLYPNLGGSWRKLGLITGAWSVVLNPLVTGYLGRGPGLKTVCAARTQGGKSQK

This assay has as its target T1, GPR40 of human origin (Homo sapiens, UniProt O14842).
T1 construct: expressed in transfected cells
Put plainly: Agonist action on GPR40 of human origin (intracellular Ca2+ change). Type of assay: cell-based. Conditions: CHO cell strain stably expressing GPR40 of human origin; change in Ca2+ concentration, fluorescent calcium indicator. As to the method:
Pharmacological Test Example 1: Agonist Action on GPR40 of Human Origin
A CHO cell strain stably expressing GPR40 of human origin was used to determine the agonist action of a subject compound. This cell strain was seeded in a clear bottom 96 well plate at 4×10^4 cells/100 pt/well. The cell strain iswas cultured in a CO2 incubator overnight using a Ham's F-12 medium containing a 10% fetal bovine serum, 100 U/mL penicillin, 0.1 mg/mL streptomycin, and 400 μg/mL Geneticin. Calcium 4 Assay Kit (Molecular Devices) was used as a fluorescent calcium indicator. One mL of 77 mg/mL probenecid (Invitrogen) was added to 100 mL of a calcium indicator solution to prepare a solution (loading solution) mixed with a 20 mM HEPES-containing Hanks' balanced salt solution (HBSS) in equal proportions. To the cells from which the culture solution is removed, 200 μl of the loading solution was added, and the cells were cultured in a CO2 incubator for 1 hour. The subject compound was diluted with a 20 mM HEPES-containing HBSS and was added to the cells by 50 μL, and the change in the Ca^2+ concentration was measured with an intracellular ion analyzer. The EC50 value of the subject compound was calculated using the dose-response curve of fluorescence intensity variation.
The term EC50 denotes the midpoint of the concentration-response curve. As for `[O-][s+]1nc(O)cc1-c1ccc(O[C@@H]2CCc3c(-c4ccccc4Cl)cccc32)cc1` (stereo partly drawn) [Example 10, 5-(4-(((R)-4-(2-chlorophenyl)-2,3-dihydro-1H-inden-1-yl)oxy)phenyl)-3-hydroxyisothiazole 1-oxide], the EC50 is less than 300 nM.

Consider `Cc1cccc(-c2cccc3c2CC[C@H]3Oc2ccc(-c3cc(O)n[s+]3[O-])cc2)c1` (stereo partly drawn) [Example 24, 5-(4-(((R)-4-(3-methylphenyl)-2,3-dihydro-1H-inden-1-yl)oxy)phenyl)-3-hydroxyisothiazole 1-oxide], for which the EC50 was less than 300 nM. Then `[O-][s+]1nc(O)cc1-c1ccc(O[C@@H]2CCc3c(-c4cccc(Cl)c4)cccc32)cc1` (stereo partly drawn) [Example 8, 5-(4-(((R)-4-(3-chlorophenyl)-2,3-dihydro-1H-inden-1-yl)oxy)phenyl)-3-hydroxyisothiazole 1-oxide], with less than 300 nM; and `[O-][s+]1nc(O)cc1-c1ccc(O[C@@H]2CCc3c(Oc4cccc(OC(F)(F)F)c4)cccc32)cc1` (stereo partly drawn) [Example 99, 3-hydroxy-5-(4-(((R)-4-(3-(trifluoromethoxy)phenoxy)-2,3-dihydro-1H-inden-1-yl)oxy)phenyl)isothiazole 1-oxide], with less than 300 nM. As to `[O-][s+]1nc(O)cc1-c1ccc(O[C@@H]2CCc3c(-c4cc(C(F)(F)F)ccc4Cl)cccc32)cc1` (stereo partly drawn) [Example 68, 5-(4-(((R)-4-(2-chloro-5-trifluoromethylphenyl)-2,3-dihydro-1H-inden-1-yl)oxy)phenyl)-3-hydroxyisothiazole 1-oxide], the EC50 lay in the range of 300 to 3000 nM. Under `Cc1ccc(Oc2cccc3c2CC[C@H]3Oc2ccc(-c3cc(O)n[s+]3[O-])cc2)nc1` (stereo partly drawn) [Example 134, 3-hydroxy-5-(4-(((R)-4-((5-methylpyridin-2-yl)oxy)-2,3-dihydro-1H-inden-1-yl)oxy)phenyl)isothiazole 1-oxide] stands less than 300 nM. `[O-][s+]1nc(O)cc1-c1ccc(O[C@@H]2CCc3c(-c4ccccc4OC(F)(F)F)cccc32)cc1` (stereo partly drawn) [Example 65, 5-(4-(((R)-4-(2-trifluoromethoxyphenyl)-2,3-dihydro-1H-inden-1-yl)oxy)phenyl)-3-hydroxyisothiazole 1-oxide]: the EC50 is less than 300 nM. As to `COc1ccc(Oc2cccc3c2OCC3Oc2ccc(-c3cc(O)n[s+]3[O-])cc2)cn1` (single isomer, unassigned) [Example 152-a, 3-hydroxy-5-(4-((7-((6-methoxypyridin-3-yl)oxy)-2,3-dihydrobenzofuran-3-yl)oxy)phenyl)isothiazole 1-oxide], the EC50 was less than 300 nM. Under `CCOCCOc1ccc(Oc2cccc3c2CC[C@H]3Oc2ccc(-c3cc(O)n[s+]3[O-])cc2)cn1` (stereo partly drawn) [Example 98, 5-(4-(((R)-4-((6-(2-ethoxyethoxy)pyridin-3-yl)oxy)-2,3-dihydro-1H-inden-1-yl)oxy)phenyl)-3-hydroxyisothiazole 1-oxide] stands less than 300 nM; under `Cc1ncccc1Oc1cccc2c1CC[C@H]2Oc1ccc(-c2cc(O)n[s+]2[O-])cc1` (stereo partly drawn) [Example 126, 3-hydroxy-5-(4-(((R)-4-((2-methylpyridin-3-yl)oxy)-2,3-dihydro-1H-inden-1-yl)oxy)phenyl)isothiazole 1-oxide], less than 300 nM; under `N#Cc1ccc(-c2cccc3c2CC[C@H]3Oc2ccc(-c3cc(O)n[s+]3[O-])cc2)cn1` (stereo partly drawn) [Example 157, 5-((1R)-1-(4-(3-hydroxy-1-oxidoisothiazol-5-yl)phenoxy)-2,3-dihydro-1H-inden-4-yl)picolinonitrile], 300 to 3000 nM. For the compound `CC(C)(C)c1ccc(-c2cccc3c2CC[C@H]3Oc2ccc(-c3cc(O)n[s+]3[O-])cc2)cc1` (stereo partly drawn) [Example 33, 5-(4-(((R)-4-(4-tert-butylphenyl)-2,3-dihydro-1H-inden-1-yl)oxy)phenyl)-3-hydroxyisothiazole 1-oxide], the EC50 lay within 300 to 3000 nM.

For the compound `CC(C)(O)CCOc1ccc(Oc2cccc3c2CC[C@H]3Oc2ccc(-c3cc(O)n[s+]3[O-])cc2)cc1` (stereo partly drawn) [Example 113, 3-hydroxy-5-(4-(((R)-4-(4-(3-hydroxy-3-methylbutoxy)phenoxy)-2,3-dihydro-1H-inden-1-yl)oxy)phenyl)isothiazole 1-oxide], the EC50 is less than 300 nM.

In the case of `COCCN(C)C(=O)c1ccc(Oc2cccc3c2CC[C@H]3Oc2ccc(-c3cc(O)n[s+]3[O-])cc2)cc1` (stereo partly drawn) [Example 146, 4-(((R)-1-(4-(3-hydroxy-1-oxidoisothiazol-5-yl)phenoxy)-2,3-dihydro-1H-inden-4-yl)oxy)-N-(2-methoxyethyl)-N-methylbenzamide], the EC50 was less than 300 nM. Under `CS(=O)(=O)c1ccccc1-c1cccc2c1CC[C@H]2Oc1ccc(-c2cc(O)n[s+]2[O-])cc1` (stereo partly drawn) [Example 70, 5-(4-(((R)-4-(2-(methylsulfonyl)phenyl)-2,3-dihydro-1H-inden-1-yl)oxy)phenyl)-3-hydroxyisothiazole 1-oxide] stands less than 300 nM; under `NC(=O)c1ccc(-c2cccc3c2CC[C@H]3Oc2ccc(-c3cc(O)n[s+]3[O-])cc2)cn1` (stereo partly drawn) [Example 77, 5-((1R)-1-(4-(3-hydroxy-1-oxidoisothiazole-5-yl)phenoxy)-2,3-dihydro-1H-inden-4-yl)picolinamide], less than 300 nM. Under `CCc1ccc(-c2cccc3c2CC[C@H]3Oc2ccc(-c3cc(O)n[s+]3[O-])cc2)cc1` (stereo partly drawn) [Example 20, 5-(4-(((R)-4-(4-ethylphenyl)-2,3-dihydro-1H-inden-1-yl)oxy)phenyl)-3-hydroxyisothiazole 1-oxide] stands 300 to 3000 nM; under `N#Cc1ccc(Oc2cccc3c2OCC3Oc2ccc(-c3cc(O)n[s+]3[O-])cc2)cc1` (single isomer, unassigned) [Example 144-a, 4-((3-(4-(3-hydroxy-1-oxidoisothiazol-5-yl)phenoxy)-2,3-dihydrobenzofuran-7-yl)oxy)benzonitrile], less than 300 nM; under `Cc1cccc(C)c1N1CCC(COc2ccc(-c3cc(O)n[s+]3[O-])cc2)C1` (stereo not drawn) [Example 121, 5-(4-((1-(2,6-dimethylphenyl)pyrrolidin-3-yl)methoxy)phenyl)-3-hydroxyisothiazole 1-oxide], 300 to 3000 nM. Then `COc1cccnc1Oc1cccc2c1CC[C@H]2Oc1ccc(-c2cc(O)n[s+]2[O-])cc1` (stereo partly drawn) [Example 132, 3-hydroxy-5-(4-(((R)-4-((3-methoxypyridin-2-yl)oxy)-2,3-dihydro-1H-inden-1-yl)oxy)phenyl)isothiazole 1-oxide], with 300 to 3000 nM; and `CS(=O)(=O)CCCOc1ccc(Oc2cccc3c2CC[C@H]3Oc2ccc(-c3cc(O)n[s+]3[O-])cc2)cn1` (stereo partly drawn) [Example 116, 3-hydroxy-5-(4-(((R)-4-((6-(3-(methylsulfonyl)propoxy)pyridin-3-yl)oxy)-2,3-dihydro-1H-inden-1-yl)oxy)phenyl)isothiazole 1-oxide], with less than 300 nM. On to `COc1ccc(-c2cccc3c2CC[C@H]3Oc2ccc(-c3cc(O)n[s+]3[O-])cc2)c(Cl)c1` (stereo partly drawn) [Example 48, 5-(4-(((R)-4-(2-chloro-4-methoxyphenyl)-2,3-dihydro-1H-inden-1-yl)oxy)phenyl)-3-hydroxyisothiazole 1-oxide], for which the EC50 is less than 300 nM. As for `CCOCCOc1ccc(Oc2cccc3c2CC[C@H]3Oc2ccc(-c3cc(O)n[s+]3[O-])cc2)c(C)n1` (stereo partly drawn) [Example 102, 5-(4-(((R)-4-((6-(2-ethoxyethoxy)-2-methylpyridin-3-yl)oxy)-2,3-dihydro-1H-inden-1-yl)oxy)phenyl)-3-hydroxyisothiazole 1-oxide], the EC50 is less than 300 nM. Consider `O=C(c1ccc(Oc2cccc3c2CC[C@H]3Oc2ccc(-c3cc(O)n[s+]3[O-])cc2)cc1)N1CCCC1` (stereo partly drawn) [Example 147, (4-(((R)-1-(4-(3-hydroxy-1-oxidoisothiazol-5-yl)phenoxy)-2,3-dihydro-1H-inden-4-yl)oxy)phenyl)(pyrrolidine-1-yl)methanone], for which the concentration giving a half-maximal response (EC50) was less than 300 nM. Then `Cc1ccc(-c2cccc3c2CC[C@H]3Oc2ccc(-c3cc(O)n[s+]3[O-])cc2)cc1` (stereo partly drawn) [Example 5, 3-hydroxy-5-(4-(((1R)-4-(p-tolyl)-2,3-dihydro-1H-inden-1-yl)oxy)phenyl)isothiazole 1-oxide], with less than 300 nM; and `[O-][s+]1nc(O)cc1-c1ccc(O[C@@H]2CCc3c(-c4ccccc4F)cccc32)cc1` (stereo partly drawn) [Example 11, 5-(4-(((R)-4-(2-fluorophenyl)-2,3-dihydro-1H-inden-1-yl)oxy)phenyl)-3-hydroxyisothiazole 1-oxide], with less than 300 nM. Then `[O-][s+]1nc(O)cc1-c1ccc(OCC2=CC3(CCCCC3)CCC2)cc1` (stereo not drawn) [Example 120, 3-hydroxy-5-(4-(spiro[5.5]undec-1-en-2-ylmethoxy)phenyl)isothiazole 1-oxide], with 300 to 3000 nM; and `[O-][s+]1nc(O)cc1-c1ccc(O[C@@H]2CCc3c(-c4ccc(Cl)cc4)cccc32)cc1` (stereo partly drawn) [Example 6, 5-(4-(((R)-4-(4-chlorophenyl)-2,3-dihydro-1H-inden-1-yl)oxy)phenyl)-3-hydroxyisothiazole 1-oxide], with 300 to 3000 nM.

Turning to `[O-][s+]1nc(O)cc1-c1ccc(O[C@@H]2CCc3c(Oc4cccnc4)cccc32)cc1` (single isomer, unassigned) [Example 85], the EC50 was less than 300 nM. Then `N#Cc1ccc(Oc2cccc3c2OCC3Oc2ccc(-c3cc(O)n[s+]3[O-])cc2)cc1` (single isomer, unassigned) [Example 144-b, 4-((3-(4-(3-hydroxy-1-oxidoisothiazol-5-yl)phenoxy)-2,3-dihydrobenzofuran-7-yl)oxy)benzonitrile], with 300 to 3000 nM.
